Measured values as given in patent US20170190705A1, “Compositions and Methods for Inhibiting BMP” (THE BRIGHAM AND WOMAN'S HOSPITAL, INC., priority 2014, published 2017).

Experiments:
Format in all cases: biochemical
ERBB4 = ERBB4 (Homo sapiens, UniProt Q15303); test: Kinome profiling ERBB4; conditions: read-out: Inhibitory activity ERBB4; for inhibition at 0.1 µM: 100 nM
Method: (§1) . The kinome-wide selectivity was determined following the methods previously reported by Mohedas et al., ACS Chem Biol 2013, 8, 1291-1302 and Sanvitale et al., PLoS One 2013, 8, e62721.

KIT = KIT (Homo sapiens, UniProt P10721); test: Kinome profiling KIT; conditions: read-out: Inhibitory activity KIT; for inhibition at 0.1 µM: 100 nM
Chain of KIT (P10721 26-976): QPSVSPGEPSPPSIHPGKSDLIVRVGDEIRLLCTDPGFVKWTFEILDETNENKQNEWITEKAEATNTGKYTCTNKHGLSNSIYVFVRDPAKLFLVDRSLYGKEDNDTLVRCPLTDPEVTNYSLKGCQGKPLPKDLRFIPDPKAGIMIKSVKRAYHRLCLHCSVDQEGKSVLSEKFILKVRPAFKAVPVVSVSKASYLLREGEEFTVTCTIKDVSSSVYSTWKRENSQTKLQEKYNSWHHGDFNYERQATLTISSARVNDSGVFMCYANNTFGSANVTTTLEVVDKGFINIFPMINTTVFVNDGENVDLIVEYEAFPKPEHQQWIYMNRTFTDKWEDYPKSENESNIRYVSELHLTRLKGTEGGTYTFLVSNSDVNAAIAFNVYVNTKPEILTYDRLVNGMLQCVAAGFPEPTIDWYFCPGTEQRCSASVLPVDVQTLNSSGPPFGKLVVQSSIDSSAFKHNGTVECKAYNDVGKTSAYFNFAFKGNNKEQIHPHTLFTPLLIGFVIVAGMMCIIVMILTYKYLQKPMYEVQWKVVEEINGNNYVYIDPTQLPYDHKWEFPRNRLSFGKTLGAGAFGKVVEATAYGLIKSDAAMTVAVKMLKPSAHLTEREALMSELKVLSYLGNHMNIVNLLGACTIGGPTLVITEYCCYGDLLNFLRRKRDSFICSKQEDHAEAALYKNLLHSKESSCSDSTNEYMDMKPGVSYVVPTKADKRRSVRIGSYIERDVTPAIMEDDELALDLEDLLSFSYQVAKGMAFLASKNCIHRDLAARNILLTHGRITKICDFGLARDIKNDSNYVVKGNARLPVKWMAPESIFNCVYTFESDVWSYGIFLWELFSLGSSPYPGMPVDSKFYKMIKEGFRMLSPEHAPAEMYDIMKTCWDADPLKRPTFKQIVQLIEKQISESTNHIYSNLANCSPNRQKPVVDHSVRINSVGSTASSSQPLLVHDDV
Method: as §1

IKK-ε = molecular target: T1, IKK-ε (Homo sapiens, UniProt Q14164); test: Kinome profiling IKK-ε; conditions: read-out: Inhibitory activity IKK-ε; for inhibition at 0.1 µM: 100 nM
T1 sequence (Q14164 1-716): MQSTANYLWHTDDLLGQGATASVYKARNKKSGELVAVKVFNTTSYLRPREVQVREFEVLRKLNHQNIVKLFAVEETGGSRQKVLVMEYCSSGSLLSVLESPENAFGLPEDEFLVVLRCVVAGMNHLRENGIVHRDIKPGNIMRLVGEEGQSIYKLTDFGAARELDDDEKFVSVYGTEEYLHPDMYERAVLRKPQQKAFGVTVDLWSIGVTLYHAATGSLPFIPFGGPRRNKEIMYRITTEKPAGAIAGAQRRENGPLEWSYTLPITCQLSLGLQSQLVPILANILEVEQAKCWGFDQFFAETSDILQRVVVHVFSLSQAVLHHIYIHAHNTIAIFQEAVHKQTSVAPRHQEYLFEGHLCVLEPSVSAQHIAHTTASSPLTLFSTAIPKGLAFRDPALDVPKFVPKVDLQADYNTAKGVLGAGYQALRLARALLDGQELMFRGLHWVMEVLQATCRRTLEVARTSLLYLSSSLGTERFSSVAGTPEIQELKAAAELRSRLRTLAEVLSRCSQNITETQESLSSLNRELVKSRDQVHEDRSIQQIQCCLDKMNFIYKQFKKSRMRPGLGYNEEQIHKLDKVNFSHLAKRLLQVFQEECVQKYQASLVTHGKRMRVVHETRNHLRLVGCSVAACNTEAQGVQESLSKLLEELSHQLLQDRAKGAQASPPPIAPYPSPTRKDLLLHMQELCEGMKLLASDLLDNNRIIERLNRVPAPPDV
Method: as §1

RON = RON (Homo sapiens, UniProt Q04912); test: Kinome profiling RON; conditions: read-out: Inhibitory activity RON; for inhibition at 0.1 µM: 100 nM
Chain of RON (Q04912 25-1400): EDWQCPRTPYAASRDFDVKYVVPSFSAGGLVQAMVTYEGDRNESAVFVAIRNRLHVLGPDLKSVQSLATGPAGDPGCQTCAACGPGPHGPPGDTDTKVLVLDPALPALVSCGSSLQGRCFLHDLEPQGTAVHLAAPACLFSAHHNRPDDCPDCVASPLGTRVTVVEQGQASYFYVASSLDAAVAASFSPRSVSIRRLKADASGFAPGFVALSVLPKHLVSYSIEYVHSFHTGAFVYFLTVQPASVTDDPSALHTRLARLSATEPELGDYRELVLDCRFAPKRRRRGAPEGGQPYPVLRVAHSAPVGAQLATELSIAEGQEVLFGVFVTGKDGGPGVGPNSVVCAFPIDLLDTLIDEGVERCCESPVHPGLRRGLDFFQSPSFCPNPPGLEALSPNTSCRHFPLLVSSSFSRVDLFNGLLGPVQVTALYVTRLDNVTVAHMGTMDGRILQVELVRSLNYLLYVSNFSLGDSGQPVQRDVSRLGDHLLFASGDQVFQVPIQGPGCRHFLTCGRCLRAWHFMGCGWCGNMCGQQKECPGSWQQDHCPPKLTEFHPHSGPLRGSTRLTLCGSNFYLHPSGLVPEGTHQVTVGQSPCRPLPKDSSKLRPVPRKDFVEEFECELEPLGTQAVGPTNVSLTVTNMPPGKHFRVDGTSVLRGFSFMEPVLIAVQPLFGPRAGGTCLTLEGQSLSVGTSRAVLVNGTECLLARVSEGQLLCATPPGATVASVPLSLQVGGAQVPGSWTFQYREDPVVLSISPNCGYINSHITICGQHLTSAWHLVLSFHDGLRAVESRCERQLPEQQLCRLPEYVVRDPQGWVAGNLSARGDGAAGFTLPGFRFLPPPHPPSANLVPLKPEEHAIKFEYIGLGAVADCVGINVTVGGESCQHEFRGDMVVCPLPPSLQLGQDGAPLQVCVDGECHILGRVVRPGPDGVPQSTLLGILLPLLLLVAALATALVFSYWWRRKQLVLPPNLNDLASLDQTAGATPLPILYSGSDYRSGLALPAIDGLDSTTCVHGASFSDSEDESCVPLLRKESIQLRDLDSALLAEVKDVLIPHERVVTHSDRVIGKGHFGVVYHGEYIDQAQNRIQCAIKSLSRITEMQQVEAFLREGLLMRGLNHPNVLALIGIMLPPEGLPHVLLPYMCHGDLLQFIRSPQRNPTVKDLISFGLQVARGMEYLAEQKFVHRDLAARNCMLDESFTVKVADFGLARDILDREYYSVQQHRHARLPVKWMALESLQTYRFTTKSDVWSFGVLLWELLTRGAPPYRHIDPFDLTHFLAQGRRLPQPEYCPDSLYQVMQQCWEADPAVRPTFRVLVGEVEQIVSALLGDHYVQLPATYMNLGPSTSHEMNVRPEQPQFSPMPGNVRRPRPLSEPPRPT
Method: as §1

NEK9 = molecular target: T2, NEK9 (Homo sapiens, UniProt Q8TD19); test: Kinome profiling NEK9; conditions: read-out: Inhibitory activity NEK9; for inhibition at 0.1 µM: 100 nM
T2 sequence (Q8TD19 1-979): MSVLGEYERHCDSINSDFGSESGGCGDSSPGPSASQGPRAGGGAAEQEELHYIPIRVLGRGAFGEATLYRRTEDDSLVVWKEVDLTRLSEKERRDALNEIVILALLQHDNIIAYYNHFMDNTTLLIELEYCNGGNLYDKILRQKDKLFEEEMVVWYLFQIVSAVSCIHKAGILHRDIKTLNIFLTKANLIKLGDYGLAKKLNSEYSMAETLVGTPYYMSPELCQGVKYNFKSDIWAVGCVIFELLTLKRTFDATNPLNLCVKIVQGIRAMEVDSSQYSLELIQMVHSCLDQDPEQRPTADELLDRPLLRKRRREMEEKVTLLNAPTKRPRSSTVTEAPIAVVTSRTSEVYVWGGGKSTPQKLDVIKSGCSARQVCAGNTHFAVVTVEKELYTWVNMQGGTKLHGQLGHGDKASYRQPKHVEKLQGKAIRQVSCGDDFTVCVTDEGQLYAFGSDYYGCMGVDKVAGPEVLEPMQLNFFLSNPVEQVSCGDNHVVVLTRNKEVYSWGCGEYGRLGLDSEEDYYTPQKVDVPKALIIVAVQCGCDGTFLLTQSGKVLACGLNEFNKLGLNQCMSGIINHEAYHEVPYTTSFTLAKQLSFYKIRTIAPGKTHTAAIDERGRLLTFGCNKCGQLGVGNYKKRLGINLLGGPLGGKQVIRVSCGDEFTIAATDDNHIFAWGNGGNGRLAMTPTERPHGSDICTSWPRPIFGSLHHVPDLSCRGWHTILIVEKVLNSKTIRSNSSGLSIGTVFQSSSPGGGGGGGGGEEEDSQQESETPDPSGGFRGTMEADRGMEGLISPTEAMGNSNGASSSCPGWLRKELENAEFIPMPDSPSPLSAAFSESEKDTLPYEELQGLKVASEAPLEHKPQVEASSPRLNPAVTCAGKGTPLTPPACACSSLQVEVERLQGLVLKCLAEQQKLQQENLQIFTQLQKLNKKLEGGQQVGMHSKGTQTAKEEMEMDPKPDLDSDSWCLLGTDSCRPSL
Method: as §1

FGFR3 = FGFR3 (Homo sapiens, UniProt P22607); test: Kinome profiling FGFR3; conditions: read-out: Inhibitory activity FGFR3; for inhibition at 0.1 µM: 100 nM
Chain of FGFR3 (P22607 23-806): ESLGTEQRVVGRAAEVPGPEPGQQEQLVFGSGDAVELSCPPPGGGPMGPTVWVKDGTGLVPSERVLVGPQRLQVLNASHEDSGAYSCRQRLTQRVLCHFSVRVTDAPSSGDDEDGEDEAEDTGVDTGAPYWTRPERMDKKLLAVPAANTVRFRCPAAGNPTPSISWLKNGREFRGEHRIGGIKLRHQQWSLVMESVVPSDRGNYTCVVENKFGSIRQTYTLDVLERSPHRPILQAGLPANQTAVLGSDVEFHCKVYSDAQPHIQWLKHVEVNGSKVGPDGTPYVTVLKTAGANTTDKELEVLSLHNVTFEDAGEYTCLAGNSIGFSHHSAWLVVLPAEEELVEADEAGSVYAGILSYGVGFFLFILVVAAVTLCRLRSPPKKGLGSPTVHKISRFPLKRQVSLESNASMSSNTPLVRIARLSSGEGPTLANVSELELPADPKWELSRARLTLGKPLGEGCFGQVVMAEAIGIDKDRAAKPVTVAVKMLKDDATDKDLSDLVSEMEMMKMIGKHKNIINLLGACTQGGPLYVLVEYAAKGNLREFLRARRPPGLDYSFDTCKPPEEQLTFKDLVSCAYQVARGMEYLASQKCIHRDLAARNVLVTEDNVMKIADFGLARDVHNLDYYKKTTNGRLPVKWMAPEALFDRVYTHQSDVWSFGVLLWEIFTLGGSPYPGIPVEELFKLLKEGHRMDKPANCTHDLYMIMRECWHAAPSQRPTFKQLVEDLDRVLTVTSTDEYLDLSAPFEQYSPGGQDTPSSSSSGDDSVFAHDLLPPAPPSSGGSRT
Method: as §1

PKA = PKA (Homo sapiens, UniProt P17612); test: Kinome profiling PKA; conditions: read-out: Inhibitory activity PKA; for inhibition at 0.1 µM: 100 nM
Method: as §1

GRK6 = GRK6 (Homo sapiens, UniProt P43250); test: Kinome profiling GRK6; conditions: read-out: Inhibitory activity GRK6; for inhibition at 0.1 µM: 100 nM
Chain of GRK6 (P43250 whole entry): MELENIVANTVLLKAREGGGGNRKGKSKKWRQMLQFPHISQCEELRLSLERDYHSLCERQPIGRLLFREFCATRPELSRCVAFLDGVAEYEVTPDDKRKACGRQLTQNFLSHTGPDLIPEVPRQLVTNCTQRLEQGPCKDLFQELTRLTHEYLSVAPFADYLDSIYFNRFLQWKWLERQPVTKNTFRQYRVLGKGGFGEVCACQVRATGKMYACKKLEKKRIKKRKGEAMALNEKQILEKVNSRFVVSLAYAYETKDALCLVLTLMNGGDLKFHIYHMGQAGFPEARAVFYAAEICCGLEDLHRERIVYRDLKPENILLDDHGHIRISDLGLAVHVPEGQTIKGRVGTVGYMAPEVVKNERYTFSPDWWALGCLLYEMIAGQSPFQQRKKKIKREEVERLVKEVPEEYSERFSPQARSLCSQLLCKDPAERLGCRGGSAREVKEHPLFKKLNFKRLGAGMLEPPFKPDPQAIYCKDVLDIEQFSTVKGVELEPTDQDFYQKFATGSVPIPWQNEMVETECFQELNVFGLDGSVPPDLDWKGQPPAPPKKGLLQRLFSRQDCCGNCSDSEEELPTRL
Method: as §1

MAPK3 = MAPK3 (Homo sapiens, UniProt P27361); test: Kinome profiling MAPK3; conditions: read-out: Inhibitory activity MAPK3; for inhibition at 0.1 µM: 100 nM
Chain of MAPK3 (P27361 whole entry): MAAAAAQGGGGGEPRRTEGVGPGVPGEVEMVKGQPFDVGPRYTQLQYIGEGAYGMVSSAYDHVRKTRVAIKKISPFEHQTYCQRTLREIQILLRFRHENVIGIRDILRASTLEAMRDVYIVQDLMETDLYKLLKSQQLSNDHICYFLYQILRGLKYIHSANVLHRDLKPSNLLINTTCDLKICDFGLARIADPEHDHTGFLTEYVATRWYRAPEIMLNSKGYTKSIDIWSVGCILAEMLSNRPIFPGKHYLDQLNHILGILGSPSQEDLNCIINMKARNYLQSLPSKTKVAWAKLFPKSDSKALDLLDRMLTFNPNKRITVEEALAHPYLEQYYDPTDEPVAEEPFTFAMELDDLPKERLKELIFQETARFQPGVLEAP
Method: as §1

PKC-η = PKC-η (Homo sapiens, UniProt P24723); test: Kinome profiling PKC-η; conditions: read-out: Inhibitory activity PKC-η; for inhibition at 0.1 µM: 100 nM
Chain of PKC-η (P24723 whole entry): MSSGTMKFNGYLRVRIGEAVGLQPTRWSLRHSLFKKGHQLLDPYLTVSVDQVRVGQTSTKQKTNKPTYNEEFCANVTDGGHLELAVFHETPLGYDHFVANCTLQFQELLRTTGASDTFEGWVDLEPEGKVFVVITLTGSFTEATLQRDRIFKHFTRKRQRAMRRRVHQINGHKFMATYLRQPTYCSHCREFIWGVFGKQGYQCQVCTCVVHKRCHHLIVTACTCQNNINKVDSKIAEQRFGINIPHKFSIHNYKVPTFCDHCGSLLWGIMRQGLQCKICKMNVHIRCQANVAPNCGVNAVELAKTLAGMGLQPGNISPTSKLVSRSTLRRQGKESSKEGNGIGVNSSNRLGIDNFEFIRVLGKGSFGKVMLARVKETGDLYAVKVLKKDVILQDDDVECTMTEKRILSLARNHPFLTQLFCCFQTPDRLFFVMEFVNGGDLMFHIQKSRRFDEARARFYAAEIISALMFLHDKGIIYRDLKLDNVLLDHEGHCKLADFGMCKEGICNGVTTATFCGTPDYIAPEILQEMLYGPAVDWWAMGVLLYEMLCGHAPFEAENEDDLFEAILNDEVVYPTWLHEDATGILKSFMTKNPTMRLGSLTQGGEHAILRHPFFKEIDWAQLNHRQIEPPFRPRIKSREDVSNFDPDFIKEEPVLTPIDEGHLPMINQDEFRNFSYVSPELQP
Method: as §1

Work on `COc1cc(-c2cc(-c3ccc(N4CCNCC4)cc3)cnc2N)cc(OC)c1OC` [Compound 15, 5-(4-(piperazin-1-yl)phenyl)-3-(3,4,5-trimethoxyphenyl)pyridin-2-amine] yielded an inhibition at 0.1 µM (ERBB4) of 9%, an inhibition at 1 µM (ERBB4) of 29% and an inhibition at 0.1 µM (KIT) of 5%. The inhibition at 1 µM (KIT) was 22%, the inhibition at 0.1 µM (IKK-ε) was 1% and the inhibition at 1 µM (IKK-ε) was 20%. It also gave an inhibition at 0.1 µM (RON) of 3%, an inhibition at 1 µM (RON) of 17% and an inhibition at 0.1 µM (NEK9) of 3%. The inhibition at 1 µM (NEK9) was 6%, the inhibition at 0.1 µM (FGFR3) was 2% and the inhibition at 1 µM (FGFR3) was 6%. For the same molecule, the inhibition at 0.1 µM (PKA) was 1%, the inhibition at 1 µM (PKA) was 2% and the inhibition at 0.1 µM (GRK6) was 0%. For the same molecule, the inhibition at 1 µM (GRK6) was 0%, the inhibition at 0.1 µM (MAPK3) was 1% and the inhibition at 1 µM (MAPK3) was 0%. For the same molecule, the inhibition at 0.1 µM (PKC-η) was 3% and the inhibition at 1 µM (PKC-η) was -1%.
With `COc1cc(-c2cc(-c3ccc(N4CCNCC4)cc3)cnc2C)cc(OC)c1OC` [Compound 10, 1-(4-(6-methyl-5-(3,4,5-trimethoxyphenyl)pyridin-3-yl)phenyl)piperazine] the inhibition at 0.1 µM (ERBB4) was 4%, the inhibition at 1 µM (ERBB4) was 21% and the inhibition at 0.1 µM (KIT) was 5%. For the same molecule, the inhibition at 1 µM (KIT) was 12%, the inhibition at 0.1 µM (IKK-ε) was 2% and the inhibition at 1 µM (IKK-ε) was 2%. It also gave an inhibition at 0.1 µM (RON) of 2%, an inhibition at 1 µM (RON) of 6% and an inhibition at 0.1 µM (NEK9) of 1%. The inhibition at 1 µM (NEK9) was 1%, the inhibition at 0.1 µM (FGFR3) was 0% and the inhibition at 1 µM (FGFR3) was 0%. The inhibition at 0.1 µM (PKA) was 1%, the inhibition at 1 µM (PKA) was 3% and the inhibition at 0.1 µM (GRK6) was 8%. The inhibition at 1 µM (GRK6) was 3%, the inhibition at 0.1 µM (MAPK3) was 1% and the inhibition at 1 µM (MAPK3) was 2%. It also gave an inhibition at 0.1 µM (PKC-η) of 5% and an inhibition at 1 µM (PKC-η) of 18%.
